Measured values published in patent US20180353512A1, “COMBINATION THERAPIES FOR TREATING B-CELL MALIGNANCIES” (GILEAD SCIENCES, INC., priority 2015, published 2018).
Read-outs that look alike come from different tables or passages of the source.

Columns and labels:
[1] = test system: A20 mutant (TNFAIP3 Q143*) TMD-8 cells; assay: 96-hour Cell Titer Glo viability assay, Ibrutinib-resistant TMD-8; details: for EC50: Homo sapiens, TMD8, read-out: EC50, cell viability; for sensitivity in cell viability assay: TMD8^A20-Q143*, 96 h
[2] = test system: TMD8^S (DMSO passage matched, idelalisib-sensitive line); assay: CellTiter-Glo viability assay at 96 h; assay type: cell-based; details: for cell growth: FIG. 23A
Protocol: Growth inhibition to Idelalisib or other inhibitors was assessed using CellTiter-Glo viability assay at 96 h. […] Cell lines were analyzed by whole exome sequencing, RNASeq, and phosphoproteomics. Protein expression was measured using Simple Western and SDS/PAGE and western blot. Caspase 3/7 was measured using Caspase-Glo 3/7 assay; apoptosis was measured with Annexin V assay and propidium iodide by flow cytometry.
Cell viability EC50 was determined using a sigmoidal dose-response (variable slope) curve generated from quadruplicate samples. Statistical significance was determined using the student's t-test for cell viability and two-tailed paired t-test for apoptosis experiments in Prism (GraphPad).
Idelalisib-resistant (TMD8^R) cell line and passage-matched Idelalisib-sensitive (TMD8^S) cell line were generated according to the procedure described in Example 5 above. To characterize the resistant cells, cell viability assays, RNASeq of multidrug resistance (MDR) family of ABC transporter genes (N=33), apoptosis assays, and phosphoprotein analysis were performed. Cell viability was measured using CellTiter-Glo, as described in Example 1A above. Western blot and protein level analysis were performed after treatment with 420 nM idelalisib, 320 nM Compound B and combination thereof, using Peggy Sue (ProteinSimple) automated Western Blot system. Protein concentration (pg/μL) was quantitated using recombinant protein standards. Normalized AUC were determined for each of the treatment groups, normalized to actin. Apoptosis was assessed by propidium iodide and Annexin V/FITC staining and measured by flow cytometry, as described in Example 1A above. Western Blot with anti-p-AKT (S473) antibody and Peggy Sue were used to determine the phosphorylation state of downstream signaling components.

Z-138 cells = assay: ATPLite anti-proliferation assay (GI) and synergy score, 120 h; assay type: cell-based
Protocol: (§1) The endpoint readout of the anti-proliferation assay was based upon quantitation of ATP as an indicator of viable cells. Cells were thawed from a liquid nitrogen preserved state. Once cells had been expanded and divided at their expected doubling times, screening began. Cells were seeded in growth media in black 384-well tissue culture treated plates at 500 cells per well (except where noted in Analyzer). Cells were equilibrated in assay plates via centrifugation and placed in incubators attached to the Dosing Modules at 37° C. for twenty-four hours before treatment. […] These Tzero (T0) plates were read using ultra-sensitive luminescence on Envision Plate Readers. Treated assay plates were incubated with the compound for one hundred twenty hours. After one hundred twenty hours, plates were developed for endpoint analysis using ATPLite. All data points were collected via automated processes; quality controlled; and analyzed using Horizon CombinatoRx proprietary software. Assay plates were accepted if they pass the following quality control standards: relative luciferase values were consistent throughout the entire experiment, Z-factor scores were greater than 0.6, untreated/vehicle controls behaved consistently on the plate.
(§2) Horizon Discovery utilized Growth Inhibition (GI) as a measure of cell viability. The cell viability of vehicle was measured at the time of dosing (T0) and after one hundred twenty hours (T120). A GI reading of 0% represented no growth inhibition—cells treated with compound and T120 vehicle signals were matched. […] A GI 200% represents complete death of all cells in the culture well. Compounds reaching an activity plateau of GI 200% were considered cytotoxic. Horizon CombinatoRx calculates GI by applying the following test and equation: […]
(§3) To measure combination effects in excess of Loewe additivity, Horizon Discovery has devised a scalar measure to characterize the strength of synergistic interaction termed the Synergy Score. The Synergy Score was calculated as:
(§4) Synergy Score=log fx log fyΣmax(0,Idata)(Idata−ILoewe)
(§5) The fractional inhibition for each component agent and combination point in the matrix was calculated relative to the median of all vehicle-treated control wells. The Synergy Score equation integrated the experimentally-observed activity volume at each point in the matrix in excess of a model surface numerically derived from the activity of the component agents using the Loewe model for additivity. Additional terms in the Synergy Score equation (above) were used to normalize for various dilution factors used for individual agents and to allow for comparison of synergy scores across an entire experiment. The inclusion of positive inhibition gating or an Idata multiplier removed noise near the zero effect level, and biased results for synergistic interactions at that occur at high activity levels.
(§6) The cell viability of vehicle was measured at the time of dosing (T0) and after 120 h (T120). […] To measure combination effects, excess of Loewe additivity was used to characterize the strength of synergistic interaction, termed the synergy score. The assay and synergy score analysis were performed in accordance with the protocol set forth in Example 1B above.

Granta-519 cells = assay: as above; assay type: cell-based
Protocol: as §1, §2, §3, §4, §5, §6

Maver-1 cells = assay: as above; assay type: cell-based
Protocol: as §1, §2, §3, §4, §5, §6

Jeko-1 cells = assay: as above; assay type: cell-based
Protocol: as §1, §2, §3, §4, §5, §6

JVM-2 cells = assay: as above; assay type: cell-based
Protocol: as §1, §2, §3, §4, §5, §6

PF-2 cells = assay: as above; assay type: cell-based
Protocol: as §1, §2, §3, §4, §5, §6

Mino cells = assay: as above; assay type: cell-based
Protocol: as §1, §2, §3, §4, §5, §6

JMP-1 cells = assay: as above; assay type: cell-based
Protocol: as §1, §2, §3, §4, §5, §6

Rec-1 cells = assay: as above; assay type: cell-based
Protocol: as §1, §2, §3, §4, §5, §6

JVM-13 cells = assay: as above; assay type: cell-based
Protocol: as §1, §2, §3, §4, §5, §6

PF-1 cells = assay: as above; assay type: cell-based
Protocol: as §1, §2, §3, §4, §5, §6

TMD-8 cells = assay: Apoptosis assay, Annexin V flow cytometry; assay type: cell-based; details: 48 h, Idelalisib = 156 nM, Compound B = 8 nM, DMSO 21
Protocol: (§7) Apoptosis of Idelalisib in combination with Compound B in two DLBCL cell lines, OCI-Ly10 and TMD-8, was also measured. Cells plated at 0.2×10^6 cells/mL in RPMI 1640 supplemented with 20% […] and 1% penicillin and streptomycin. Cells were treated with compound, 156 nM Idelalisib, Compound B and the combination thereof. Control received DMSO at 0.2%. Cells were then incubated at 37 C for 48 hours. Apoptosis was measured using Annexin V/FITC kit, and analyzed by flow cytometry. Apoptosis was also measured using or Annexin V/7ADD kit (Beckman Coulter). Fluorescence was measured by flow cytometry using BD LSRII and the results were analyzed using FACSDiva.

OCI-LY10 cells = assay: Apoptosis assay, Annexin V flow cytometry; assay type: cell-based; details: 48 h, Idelalisib = 156 nM, Compound B = 8 nM, DMSO 29
Protocol: as §7

CC#CC(=O)N1CC[C@@H](n2c(=O)n(-c3ccc(Oc4ccccc4)cc3)c3c(N)ncnc32)C1 [Compound B, 6-amino-9-[(3R)-1-(2-butynoyl)-3-pyrrolidinyl]-7-(4-phenoxyphenyl)-7,9-dihydro-8H-purin-8-one]
EC50 [1]: > 10000 nM
sensitivity in cell viability assay [1]: resistant
cell growth [2]: inhibited cell growth
EC50 ([2]; unit inferred, read-out: EC50, cell viability): 1.2 nM
Max. Effect (% GI) (Z-138 cells): 11 % GI
Max. Effect (% GI) (Granta-519 cells): 22 % GI
Max. Effect (% GI) (Maver-1 cells): 45 % GI
Max. Effect (% GI) (Jeko-1 cells): 37 % GI
Max. Effect (% GI) (JVM-2 cells): 91 % GI
Max. Effect (% GI) (PF-2 cells): 25 % GI
Max. Effect (% GI) (Mino cells): 35 % GI
Max. Effect (% GI) (JMP-1 cells): 14 % GI
Max. Effect (% GI) (Rec-1 cells): 111 % GI
Max. Effect (% GI) (JVM-13 cells): 15 % GI
Max. Effect (% GI) (PF-1 cells): 9 % GI
% Annexin V+ (TMD-8 cells): 44%
% Annexin V+ (OCI-LY10 cells): 26%

CCC(Nc1ncnc2[nH]cnc12)c1nc2cccc(F)c2c(=O)n1-c1ccccc1 (centres unmarked) [Idelalisib, 2-(1-((9H-Purin-6-yl)amino)propyl)-5-fluoro-3-phenylquinazolin-4(3H)-one]
EC50 [1]: ≥ 4300 nM
sensitivity in cell viability assay [1]: resistant
EC50 ([2]; Example 7, read-out: EC50, cell viability): 220 nM
cell growth [2]: inhibited cell growth
inhibition at 1 µM ([2]; at 1 μM, read-out: Growth inhibition): 92%
Max. Effect (% GI) (Z-138 cells): 11 % GI
Max. Effect (% GI) (Granta-519 cells): 72 % GI
Max. Effect (% GI) (Maver-1 cells): 48 % GI
Max. Effect (% GI) (Jeko-1 cells): 73 % GI
Max. Effect (% GI) (JVM-2 cells): 146 % GI
Max. Effect (% GI) (PF-2 cells): 113 % GI
Max. Effect (% GI) (Mino cells): 34 % GI
Max. Effect (% GI) (JMP-1 cells): 69 % GI
Max. Effect (% GI) (Rec-1 cells): 163 % GI
Max. Effect (% GI) (JVM-13 cells): 92 % GI
Max. Effect (% GI) (PF-1 cells): 29 % GI
% Annexin V+ (TMD-8 cells): 45%
% Annexin V+ (OCI-LY10 cells): 25%
